# Reference: US20110245192A1, “NEW ACTIVATORS FOR TREATING AND/OR PREVENTING DISEASES OR MEDICAL CONDITIONS WHICH BENEFIT FROM AN INCREASED TRANSPORT OF HYALURONAN ACROSS A LIPID BILAYER” (priority 2008, published 2011)
# Tested on: hyaluronan transport/export in fibroblasts
# Assay: Assay for hyaluronan transport/export activators in fibroblast cell culture (hyaluronan in culture medium by ELISA)
# Format: cell-based
# Details: 2 days at 37° C.
# Procedure: Compound 89 activates 4,7fold, while compound 101 activates 2,4fold. The “activatory capability” as described herein is expressed as the ratio of hyaluronan exported in the presence and absence of the compound. Methods to determine the hyaluronan transport are disclosed herein, and are also disclosed in great detail in WO2005/013947.
# Trypsinised fibroblasts were suspended in Dulbeccos medium at 10^5 cells/ml and 100 μl aliquots were transferred to a 96 well microtiter plate. The first row received 200 μl of the suspension and 20 μl of the activators of the invention dissolved in phosphate buffered saline at concentrations of 4 mM. A serial dilution of the activators was established by transfer of 100 μl aliquots from the first row to the following rows. All experiments were performed in duplicates. […] The cells were incubated for 2 days at 37° C. and aliquots (5 and 20 μl) of the culture medium were used for measurement of the hyaluronan concentration in the cell culture medium by an ELISA [125]. […] The adsorption was read at 490 nm. The concentrations in the samples were calculated from a logarithmic regression curve of the hyaluronan standard solutions. […]
row,SMILES,activatory capability: ratio of hyaluronan exported in the presence and absence of the compound
1,CC(=O)Nc1c(O)cc(O)cc1Oc1ccc(N)cc1C(=O)O [Compound 89],"4,7 fold"
2,CC(=O)Nc1c(O)cccc1Oc1ccc(N)cc1C(=O)O [Compound 101],"2,4 fold"
